According to the supplement of paper PMC10307832:

Tests used:
Test in all cases: relative viability (nuclei count vs DMSO), 5 days (fraction); higher = more cells survive
[1] = tested on: ABC-1
Method in brief: (§1)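 Relative viability is defined as nuclei in treated wells over nuclei in vehicle wells. Duplicate plates were run and medians reported. Lung cancer cell lines in 1536-well plates were dosed by pin tool one day after seeding, with one drug or with a fixed anchor-drug dose plus five library-drug doses (not always all listed) in √10 steps, and nuclei were counted after 5 days.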

[2] = tested on: CAL-12T
Method in brief: as §1

[3] = tested on: ChaGo-K-1
Method in brief: as §1

[4] = tested on: HCC-366
Method in brief: as §1

[5] = tested on: HCC-78
Method in brief: as §1

[6] = tested on: LC-2-ad
Method in brief: as §1

[7] = tested on: LOU-NH91
Method in brief: as §1

[8] = tested on: LU99A
Method in brief: as §1

[9] = tested on: NCI-H1395
Method in brief: as §1

[10] = tested on: NCI-H1651
Method in brief: as §1

[11] = tested on: NCI-H1755
Method in brief: as §1

[12] = tested on: NCI-H1793
Method in brief: as §1

[13] = tested on: NCI-H1944
Method in brief: as §1

[14] = tested on: NCI-H2087
Method in brief: as §1

[15] = tested on: NCI-H2170
Method in brief: as §1

[16] = tested on: NCI-H2405
Method in brief: as §1

[17] = tested on: NCI-H3122
Method in brief: as §1

[18] = tested on: NCI-H460
Method in brief: as §1

[19] = tested on: PC-3 [JPC-3]
Method in brief: as §1

[20] = tested on: RERF-LC-KJ
Method in brief: as §1

SMILES: CC(=O)O[C@@]12CO[C@@H]1C[C@H](O)[C@@]1(C)C(=O)[C@H](O)C3=C(C)[C@@H](OC(=O)[C@H](O)[C@@H](NC(=O)OC(C)(C)C)c4ccccc4)C[C@@](O)([C@@H](OC(=O)c4ccccc4)[C@H]21)C3(C)C [Docetaxel] + NC(=O)Nc1cc(-c2cccc(F)c2)sc1C(=O)N[C@H]1CCCNC1 [AZD7762] (partner 0.2 µM)
- relative viability ([1]; first compound 0.0002 µM): 0.826
- relative viability ([1]; first compound 0.000632 µM): 0.795
- relative viability ([1]; first compound 0.002 µM): 0.619
- relative viability ([1]; first compound 0.006325 µM): 0.297
- relative viability ([1]; first compound 0.02 µM): 0.222
- relative viability ([2]; first compound 0.0002 µM): 0.595
- relative viability ([2]; first compound 0.000632 µM): 0.452
- relative viability ([2]; first compound 0.002 µM): 0.491
- relative viability ([2]; first compound 0.02 µM): 0.176
- relative viability ([3]; first compound 0.0002 µM): 0.817
- relative viability ([3]; first compound 0.000632 µM): 0.792
- relative viability ([3]; first compound 0.002 µM): 0.578
- relative viability ([3]; first compound 0.006325 µM): 0.27
- relative viability ([3]; first compound 0.02 µM): 0.161
- relative viability ([4]; first compound 0.0002 µM): 0.206
- relative viability ([4]; first compound 0.000632 µM): 0.0949
- relative viability ([4]; first compound 0.002 µM): 0.145
- relative viability ([4]; first compound 0.006325 µM): 0.0384
- relative viability ([4]; first compound 0.02 µM): 0.0132
- relative viability ([5]; first compound 0.0002 µM): 0.479
- relative viability ([5]; first compound 0.000632 µM): 0.545
- relative viability ([5]; first compound 0.002 µM): 0.318
- relative viability ([5]; first compound 0.006325 µM): 0.394
- relative viability ([5]; first compound 0.02 µM): 0.364
- relative viability ([6]; first compound 0.0002 µM): 0.8
- relative viability ([6]; first compound 0.000632 µM): 0.353
- relative viability ([6]; first compound 0.002 µM): 0.224
- relative viability ([6]; first compound 0.006325 µM): 0.274
- relative viability ([6]; first compound 0.02 µM): 0.178
- relative viability ([7]; first compound 0.0002 µM): 0.748
- relative viability ([7]; first compound 0.000632 µM): 0.662
- relative viability ([7]; first compound 0.002 µM): 0.509
- relative viability ([7]; first compound 0.006325 µM): 0.385
- relative viability ([7]; first compound 0.02 µM): 0.342
- relative viability ([8]; first compound 0.0002 µM): 0.328
- relative viability ([8]; first compound 0.000632 µM): 0.253
- relative viability ([8]; first compound 0.002 µM): 0.194
- relative viability ([8]; first compound 0.006325 µM): 0.228
- relative viability ([8]; first compound 0.02 µM): 0.104
- relative viability ([9]; first compound 0.0002 µM): 0.421
- relative viability ([9]; first compound 0.000632 µM): 0.38
- relative viability ([9]; first compound 0.002 µM): 0.379
- relative viability ([9]; first compound 0.006325 µM): 0.343
- relative viability ([9]; first compound 0.02 µM): 0.32
- relative viability ([10]; first compound 0.0002 µM): 0.345
- relative viability ([10]; first compound 0.000632 µM): 0.507
- relative viability ([10]; first compound 0.002 µM): 0.394
- relative viability ([10]; first compound 0.006325 µM): 0.13
- relative viability ([11]; first compound 0.0002 µM): 0.488
- relative viability ([11]; first compound 0.000632 µM): 0.396
- relative viability ([11]; first compound 0.002 µM): 0.324
- relative viability ([11]; first compound 0.006325 µM): 0.401
- relative viability ([11]; first compound 0.02 µM): 0.352
- relative viability ([12]; first compound 0.0002 µM): 0.369
- relative viability ([12]; first compound 0.000632 µM): 0.381
- relative viability ([12]; first compound 0.002 µM): 0.299
- relative viability ([12]; first compound 0.006325 µM): 0.204
- relative viability ([12]; first compound 0.02 µM): 0.144
- relative viability ([13]; first compound 0.0002 µM): 0.667
- relative viability ([13]; first compound 0.000632 µM): 0.476
- relative viability ([13]; first compound 0.002 µM): 0.339
- relative viability ([13]; first compound 0.006325 µM): 0.25
- relative viability ([13]; first compound 0.02 µM): 0.102
- relative viability ([14]; first compound 0.0002 µM): 1.23
- relative viability ([14]; first compound 0.000632 µM): 0.822
- relative viability ([14]; first compound 0.002 µM): 0.203
- relative viability ([14]; first compound 0.006325 µM): 0.236
- relative viability ([14]; first compound 0.02 µM): 0.108
- relative viability ([15]; first compound 0.0002 µM): 0.895
- relative viability ([15]; first compound 0.000632 µM): 0.722
- relative viability ([15]; first compound 0.002 µM): 0.581
- relative viability ([15]; first compound 0.02 µM): 0.131
- relative viability ([16]; first compound 0.0002 µM): 0.742
- relative viability ([16]; first compound 0.000632 µM): 0.582
- relative viability ([16]; first compound 0.002 µM): 0.46
- relative viability ([16]; first compound 0.006325 µM): 0.349
- relative viability ([16]; first compound 0.02 µM): 0.248
- relative viability ([17]; first compound 0.0002 µM): 0.939
- relative viability ([17]; first compound 0.000632 µM): 0.818
- relative viability ([17]; first compound 0.002 µM): 0.843
- relative viability ([17]; first compound 0.006325 µM): 0.171
- relative viability ([17]; first compound 0.02 µM): 0.121
- relative viability ([18]; first compound 0.0002 µM): 0.565
- relative viability ([18]; first compound 0.000632 µM): 0.575
- relative viability ([18]; first compound 0.002 µM): 0.167
- relative viability ([18]; first compound 0.006325 µM): 0.0571
- relative viability ([18]; first compound 0.02 µM): 0.0404
- relative viability ([19]; first compound 0.0002 µM): 0.761
- relative viability ([19]; first compound 0.000632 µM): 0.69
- relative viability ([19]; first compound 0.002 µM): 0.441
- relative viability ([19]; first compound 0.006325 µM): 0.267
- relative viability ([19]; first compound 0.02 µM): 0.169
- relative viability ([20]; first compound 0.0002 µM): 0.5
- relative viability ([20]; first compound 0.000632 µM): 1.01
- relative viability ([20]; first compound 0.002 µM): 0.363
- relative viability ([20]; first compound 0.006325 µM): 0.196
- relative viability ([20]; first compound 0.02 µM): 0.128
